{"source": "patent US20160319367A1", "about": "“MEANS AND METHODS FOR TYPING A BREAST CANCER PATIENT AND ASSIGNING THERAPY BASED ON THE TYPING” (STICHTING HET NEDERLANDS KANKER INSTITUUT-ANTONI VAN …, priority 2013, published 2016)", "key": {"ERα": {"test_system": "ERα", "assay": "ERα ChIP-seq (ERα/chromatin interactions) in ZR-75-1 cells", "format": "cell-based, human", "settings": "control ZR-75-1 cells (pRS-GFP), hormone depleted 72 hours, ligand for 48 hours", "quoted_text": "Chromatin Immunoprecipitations (ChIP) were performed as described before (Schmidt et al., 2009. Methods 48: 240-8). For each ChIP, 10 μg of antibody was used, and 100 μl of Protein A magnetic beads (Invitrogen). The antibody used was raised against ERα (SC-543; Santa Cruz).\nChIP DNA was amplified as described (Schmidt et al., 2009. Methods 48: 240-8). Sequences were generated by the Illumina Hiseq 2000 genome analyser (using 50 bp reads), and aligned to the Human Reference Genome (assembly hg19, February 2009). Enriched regions of the genome were identified by comparing the ChIP samples to mixed input using the MACS peak caller (Zhang et al., 2008. Genome Biol 9: R137) version 1.3.7.1.\nChIP-seq data snapshots were generated using the Integrative Genome Viewer IGV 2.1 (www.broadinstitute.org/igv/). Motif analyses were performed through the Cistrome (cistrome.org), applying the SeqPos motif tool (He et al., 2010. Nat Genet 42: 343-7). The genomic distributions of binding sites were analysed using the cis-regulatory element annotation system (CEAS) (Ji et al., 2006. Nucleic Acids Res 34: W551-4). The genes closest to the binding site on both strands were analysed. If the binding region is within a gene, CEAS software indicates whether it is in a 5′UTR, a 3′UTR, a coding exon, or an intron. Promoter is defined as 3 kb upstream from RefSeq 5′ start. […]"}, "ZR-75-1 cells [1]": {"test_system": "ZR-75-1 cells", "assay": "RNA-seq global gene expression analysis in ZR-75-1 cells", "format": "cell-based, human", "settings": "hormone depletion for 72 hours, treated for 48 hours, RNAseq, p<0.05", "description": "Transcriptome sequencing analysis of the cell line ZR-75-1 with stable USP9X knockdown or a control vector were performed using RNA-Seq. The reads (14-30 million 50 bp single-end) were mapped to the human reference genome (hg19) using TopHat (Trapnell et al., 2009. Bioinformatics 25: 1105-1127), which allows to span exon-exon splice junctions. TopHat was supplied with a known set of gene models (Ensembl version 64). The open-source tool HTSeq-Count was used to obtain gene expressions. This tool generates a list of the total number of uniquely mapped sequencing reads for each gene that is present in the provided Gene Transfer Format (GTF) file. In order to identify differentially expressed genes, the random sampling model in the R package […] al., 2010. Bioinformatics 26: 136-8.28) was used. […] The input of this method is the absolute number of reads for a gene, which is the output of HTSeq-count. Genes with no expression across both samples in the comparison were discarded from the dataset. The expression levels of the remaining genes were added with 1 in order to avoid negative values after log 2 transformation during the normalization step within this method. […] We therefore asked whether USP9X knockdown in tamoxifen-treated cells would also give rise to a typical estradiol-responsive gene set. […]"}, "ZR-75-1 cells [2]": {"test_system": "ZR-75-1 cells", "assay": "Colony formation / proliferation assay in ZR-75-1 cells", "format": "cell-based, human", "settings": "1 μM 4OH-tamoxifen or 10^-7 M fulvestrant", "description": "The human breast cancer cell lines ZR-75-1 (ATCC CRL-1500), MDA-MB-231 (ATCC HTB-26) and T47D (ATCC HTB133) were cultured in DMEM supplemented with 10% FCS, 2 mM glutamine, 100 μg/ml penicillin, 100 μg/ml streptomycin, and 1 nM estradiol at 37° C. in 5% CO2. […] Phoenix cells (ATCC CRL-3214) were cultured at 37° C. in 5% CO2 in DMEM with 10% FCS, 2 mM glutamine, 100 μg/ml penicillin, and 100 μg/ml streptomycin.\nCells were infected with retroviral supernatant and selected with puromycin (2.0 μg/ml). […] When colonies appeared, cells were fixed in MeOH/HAc (3:1) and subsequently stained with 50% MeOH/10% HAc/0.1% Coomassie."}, "[3]": {"settings": "cited from earlier work"}, "[4]": {"settings": "early breast cancer, 5 years of adjuvant treatment"}}}
{"compound": "CC/C(=C(\\c1ccc(O)cc1)c1ccc(OCCN(C)C)cc1)c1ccccc1", "note": "[4OH-tamoxifen]", "values": [{"measurement": "ERα/chromatin interactions", "setting": "ERα", "value": "far less pronounced"}, {"measurement": "number of genes with altered expression as compared to vehicle", "setting": "ZR-75-1 cells [1]", "value": 1906, "unit": "genes"}]}
{"compound": "C[C@]12CC[C@@H]3c4ccc(O)cc4CC[C@H]3[C@@H]1CC[C@@H]2O", "note": "[estradiol]", "values": [{"measurement": "number of genes with altered expression as compared to vehicle", "setting": "ZR-75-1 cells [1]", "value": 8794, "unit": "genes"}]}
{"compound": "C[C@]12CC[C@@H]3c4ccc(O)cc4C[C@@H](CCCCCCCCC[S+]([O-])CCCC(F)(F)C(F)(F)F)[C@H]3[C@@H]1CC[C@@H]2O", "note": "(stereo partly drawn) [fulvestrant, (7α,17β)-7-{9-[(4,4,5,5,5-pentafluoropentyl)sulfinyl]nonyl}estra-1,3,5(10)-triene-3,17-diol]", "values": [{"measurement": "cell proliferation", "setting": "ZR-75-1 cells [2]", "value": "proliferation arrest"}]}
{"compound": "CC/C(=C(\\c1ccccc1)c1ccc(OCCN(C)C)cc1)c1ccccc1.O=C(O)CC(O)(CC(=O)O)C(=O)O", "note": "[tamoxifen, (Z)2-[4-(1,2-diphenyl-1-butenyl)phenoxy]-N, N-dimethylethanamine 2-hydroxy-1,2,3-propanetricarboxylate (1:1)]", "values": [{"measurement": "rate of disease recurrence", "setting": "[3]; [4]", "value": "almost halves"}, {"measurement": "reduction of annual breast cancer death rate", "setting": "[3]; [4]", "value": "one-third"}, {"measurement": "women who still develop recurrent disease despite adjuvant treatment", "setting": "[3]; in the next 15 years", "value": "one-third"}]}
